US20070049611A1, “Phosphodiesterase 4 inhibitors” (priority 2005, published 2007)

Tests used:
rats [1] = assay: Passive avoidance in rats, an in vivo test for learning and memory; conditions: rat, MK-801 0.1 mg/kg, 24 hours after electric shock, p<0.001
Description: The test was performed as previously described (Zhang, H.-T., Crissman, A. M., Dorairaj, N. R., Chandler, L. J., and O'Donnell, J. M., Neuropsychopharmacology, 2000, 23, 198-204.). The apparatus (Model E10-16SC, Coulboum Instruments, Allentown, Pa.) consisted of a two-compartment chamber with an illuminated compartment connected to a darkened compartment by a guillotine door. The floor of the darkened compartment consisted of stainless steel rods through which an electric foot-shock could be delivered from a constant current source. All experimental groups were first habituated to the apparatus the day before the start of the experiment. During the training, the rat (Male Spraque-Dawley (Harlan) weighing 250 to 350 g) was placed in the illuminated compartment facing away from the closed guillotine door for 1 minute before the door was raised. The latency for entering the darkened compartment was recorded. After the rat entered the darkened compartment, the door was closed and a 0.5 mA electric shock was administered for 3 seconds. […] The latency for entering the darkened compartment was recorded for up to 180 seconds, at which time the trial was terminated.
(§1) All data were analyzed by analyses of variance (ANOVA); individual comparisons were made using Kewman-Keuls tests. […]

rats [2] = assay: Radial arm maze task in rats, an in vivo test for learning and memory; conditions: rat, MK-801 0.1 mg/kg i.p., p<0.01
Description: The test was performed as previously described (Zhang, H.-T., Crissman, A. M., Dorairaj, N. R., Chandler, L. J., and O'Donnell, J. M., Neuropsychopharmacology, 2000, 23, 198-204.). Five days after initial housing, rats (male Spraque-Dawley (Harlan) weighing 250 to 350 g) were placed in the eight-arm radial maze (each arm was 60×10×12 cm high; the maze was elevated 70 cm above the floor) for acclimation for two days. Rats were then placed individually in the center of the maze for 5 minutes with food pellets placed close to the food wells, and then, the next day, in the wells at the end of the arms; 2 sessions a day were conducted. Next, four randomly selected arms were then baited with one pellet of food each. The rat was restricted to the center platform (26 cm in diameter) for 15 seconds and then allowed to move freely throughout the maze until it collected all pellets of food or 10 minutes passed, whichever came first.
Four parameters were recorded: 1) working memory errors, i.e., entries into baited arms that had already been visited during the same trial; 2) reference memory errors, i.e., entries into unbaited arms; 3) total arm entries; and 4) the test duration (seconds), i.e., the time spent in the collection of all the pellets in the maze. […]
as §1

With C[C@]12N[C@H](Cc3ccccc31)c1ccccc12 [MK-801] the “latency for entering the darkened compartment compared to the vehicle” value (rats [1]) was “markedly reduced this latency” and the “frequencies of working and reference memory errors compared to control” value (rats [2]) was “increased the frequencies of both working and reference memory errors”.
